{
  "source": "patent US20230054194A1",
  "about": "“Methods of Treating Cancer” (ARIAGEN, INC., priority 2018, published 2023)",
  "key": {"[1]": {"system": "LL/2", "assay": "LL/2 subcutaneous syngeneic lung cancer mouse model (Study 6), tumor growth inhibition", "format": "in vivo, mouse (C57BL/6)", "details": "for Tumor size / TGI(%): LL/2 model, study end day Day 32; for Tumor size: Mean ± SEM, in mm³; for anti-tumor potency of anti-PD-1 antibody combined with the compound, compared to the antibody alone or the vehicle: LL/2 syngeneic lung cancer model", "procedure": "(§1) In this example, the in vivo anti-tumor efficacy of ARI-001, ARI-002, ARI-003, and ARI-143 and their combinations with an anti-PD-1 antibody was evaluated using a panel of twelve subcutaneous syngeneic mouse tumor models.\n(§2) Eleven subcutaneous syngeneic mouse tumor models were generated by innoculating female BALB/C or C57BL/6 mice with cancer cells at their right lower or right front flank followed by randomization as detailed in Table 4 below.\n(§3) A solution of a rat monoclonal anti-mouse PD-1 antibody (isotype IgG2a, κ) at a concentration of 6.61 mg/ml was obtained from BioXcell (InVivoMAb anti-mouse PD-1 (CD279), Clone RMP1-14, Cat #BE0146)) and store at 4° C. The antibody solution was diluted with PBS to obtain a 1 mg/ml dosing solution.\n(§4) ARI-001, ARI-002, and ARI-003 powder was stored at −20° C. The powder of each compound was dissolved in DMSO to obtain dosing solutions at 106.7, 80, and 53.33 mg/ml for administration to mice at 160, 120, and 80 mg/kg, respectively. ARI-143 was similarly prepared.\n(§5) Twelve studies using the twelve subcutaneous syngeneic mouse tumor models were performed. In each study, 80 mice were enrolled and randomly allocated to eight different study groups, with 10 mice in each study group. The mean tumor size at randomization was approximately 80-120 mm^3 (around 100 mm^3). Randomization was performed based on “Matched distribution” randomization method (StudyDirector™ software, version 3.1.399.19). […] All the drugs and vehicle controls were injected to the mice intraperitoneally.\n(§6) After tumor cell inoculation, the animals were checked daily for morbidity and mortality. At the time of routine monitoring, the animals were checked for any effects of tumor growth and treatments on behavior such as mobility, food and water consumption, body weight gain/loss (body weights were measured twice or three times per week after randomization), and any other abnormalities. Mortality and observed clinical signs were recorded for individual animals. Tumor volumes were measured twice or three times weekly after randomization in two dimensions using a caliper, and the volume was expressed in mm^3 using the formula: […]\n(§7) where V is tumor volume, L is tumor length (the longest tumor dimension) and W is tumor width (the longest tumor dimension perpendicular to L).\n(§8) The study was terminated when the mean tumor volume (MTV) in the vehicle group reached a value of 2,000 mm^3. Tumor growth inhibition (TGI) is an indication of antitumor activity, and expressed as: […]\n(§9) where T and C are the MTV (or weight) of the treated and control groups, respectively, on a given day. Statistical analysis of the difference in MTV among the groups was conducted using the data collected on the day when the MTV of the vehicle group reached the humane endpoints, so that TGI could be derived for all or most mice enrolled in the study.\n(§10) Statistical analysis of differences in MTV among the groups was conducted by Independent-Samples T Test using the data collected. All data were analyzed with SPSS (Statistical Product and Service Solutions) version 18.0 (IBM, Armonk, N.Y., U.S.). P-values were rounded to three decimal places, with the exception that raw P-values less than 0.001 were stated as P<0.001. All tests were two-sided. P<0.05 was considered to be statistically significant.\nFIG. 65 is a graph showing the mean tumor volume on different study days in the study groups as indicated according to Study 6 (LL/2). The study end day was Day 32."}, "[2]": {"system": "A20", "assay": "A20 subcutaneous syngeneic lymphoma mouse model (Study 5), tumor growth inhibition", "format": "in vivo, mouse (BALB/C)", "details": "for TGI(%) / Tumor size (Mean ± SEM): A20 model, i.p., ARI compounds 160 mg/kg QD × 14 doses, Anti-PD-1 10 BIW × 4 doses, study end day Day 26", "procedure": "as §1, §2, §3, §4, §5, §6, §7, §8, §9, §10\nFIG. 64 is a graph showing the mean tumor volume on different study days in the study groups as indicated according to Study 5 (A20). The study end day was Day 26."}, "[3]": {"system": "H22", "assay": "H22 subcutaneous syngeneic liver cancer mouse model (Study 11), tumor growth inhibition", "format": "in vivo, mouse (BALB/C)", "details": "for Tumor size / TGI(%): H22 model, study end day Day 18; for Tumor size: Mean ± SEM, in mm³", "procedure": "as §1, §2, §3, §4, §5, §6, §7, §8, §9, §10\nFIG. 70 is a graph showing the mean tumor volume on different study days in the study groups as indicated according to Study 11 (H22). The study end day was Day 18."}},
  "data": [
    {"smiles": "CCC(=O)c1csc(C(=O)c2c[nH]c3ccccc23)n1", "note": "[ARI-002]", "values": [
      {"measurement": "Tumor size", "setting": "[1]", "value": "837.75 ± 117.58"},
      {"measurement": "TGI(%)", "setting": "[1]", "value": 62, "unit": "%"},
      {"measurement": "anti-tumor potency of anti-PD-1 antibody combined with the compound, compared to the antibody alone or the vehicle", "setting": "[1]", "value": "statistically significant increase"},
      {"measurement": "TGI(%)", "setting": "[2]", "value": 45, "unit": "%"},
      {"measurement": "Tumor size (Mean ± SEM)", "setting": "[2]", "value": "1446.75 ± 149.90", "unit": "mm^3"},
      {"measurement": "anti-tumor potency of the compound combined with anti-PD-1 antibody, compared to being used alone", "setting": "[2]; A20 syngeneic lymphoma tumor model", "value": "statistically significant increase"},
      {"measurement": "Tumor size", "setting": "[3]", "value": "1261.07 ± 203.55"},
      {"measurement": "TGI(%)", "setting": "[3]", "value": 44, "unit": "%"},
      {"measurement": "anti-tumor potency of the compound combined with anti-PD-1 antibody, compared to being used alone", "setting": "[3]; H22 syngeneic liver cancer model", "value": "statistically significant increase"}
    ]},
    {"smiles": "COC(=O)c1csc(C(=O)c2c[nH]c3ccccc23)n1", "note": "[ARI-001]", "values": [
      {"measurement": "Tumor size", "setting": "[1]", "value": "881.1 ± 93.59"},
      {"measurement": "TGI(%)", "setting": "[1]", "value": 60, "unit": "%"},
      {"measurement": "anti-tumor potency of anti-PD-1 antibody combined with the compound, compared to the antibody alone or the vehicle", "setting": "[1]", "value": "statistically significant increase"},
      {"measurement": "TGI(%)", "setting": "[2]", "value": 55, "unit": "%"},
      {"measurement": "Tumor size (Mean ± SEM)", "setting": "[2]", "value": "1190.08 ± 205.09", "unit": "mm^3"},
      {"measurement": "Tumor size", "setting": "[3]", "value": "1139.95 ± 207.21"},
      {"measurement": "TGI(%)", "setting": "[3]", "value": 50, "unit": "%"}
    ]}
  ]
}
